Active and inactive are the calls of the source. The calls are words filed in the database; no cut-off is given here.
How the values were obtained:
[1] = test system: T47D; assay: Inhibition of colony formation in human T47D cells at 1 to 5 uM incubated for 14 days by crystal violet staining based analysis; format: functional, cell-based; conditions: dose 1-5 µM, time 14.0 day
[2] = test system: MCF7; assay: Inhibition of colony formation in human MCF7 cells at 1 to 10 uM incubated for 14 days by crystal violet staining based analysis; format: functional, cell-based; conditions: dose 1-10 µM, time 14.0 day
[3] = test system: T47D; assay: Induction of cell cycle arrest in human T47D cells assessed as proportion of cells at G2 phase at 1 uM incubated for 24 hrs by flow cytometry (reference value: 24.4%); format: functional
[4] = test system: MCF7; assay: Induction of cell cycle arrest in human MCF7 cells assessed as proportion of cells at G1 phase at 1 uM incubated for 24 hrs by flow cytometry (reference value: 46.3%); format: functional
[5] = test system: MCF7; assay: Induction of cell cycle arrest in human MCF7 cells assessed as proportion of cells at S phase at 1 uM incubated for 24 hrs by flow cytometry (reference value: 27.6%); format: functional
[6] = test system: MCF7; assay: Induction of cell cycle arrest in human MCF7 cells assessed as proportion of cells at G2 phase at 1 uM incubated for 24 hrs by flow cytometry (reference value: 25.5%); format: functional
[7] = test system: MCF7; assay: Induction of cell cycle arrest in human MCF7 cells assessed as proportion of cells at G1 phase at 5 uM incubated for 24 hrs by flow cytometry (reference value: 46.3%); format: functional
[8] = test system: MCF7; assay: Induction of cell cycle arrest in human MCF7 cells assessed as proportion of cells at G2 phase at 5 uM incubated for 24 hrs by flow cytometry (reference value: 25.5%); format: functional
[9] = test system: T47D; assay: Induction of apoptosis and necrosis in human T47D cells assessed as live cells at 10 uM incubated for 48 hrs by AnnexinV-FITC/PI staining based flow cytometry (reference value: 96.26%); format: functional
[10] = test system: MCF7; assay: Induction of apoptosis and necrosis in human MCF7 cells assessed as live cells at 10 uM incubated for 48 hrs by AnnexinV-FITC/PI staining based flow cytometry (reference value: 92.97%); format: functional
[11] = test system: MCF7; assay: Induction of apoptosis and necrosis in human MCF7 cells incubated for 48 hrs by AnnexinV-FITC/PI staining based flow cytometry (reference value: 7.03%); format: functional
[12] = test system: T47D; assay: Induction of apoptosis in human T47D cells at 10 uM incubated for 48 hrs by TUNEL assay; format: functional, cell-based
[13] = test system: MCF7; assay: Antitumor activity against human MCF7 cells xenografted in BALB/c nude mouse assessed as reduction in tumor volume at 2 to 4 mg/kg, ip administered every other day by caliper analysis; format: functional, organism-based; conditions: dose 2-4 mg/kg
[14] = Toxicity in BALB/c nude mouse xenografted with human MCF7 cells assessed as liver cell morphological changes at 2 to 4 mg/kg, ip administered every other day by Hematoxylin and eosin staining based analysis; format: organism-based; conditions: in vivo, dose 2-4 mg/kg
[15] = test system: T47D; assay: Induction of autophagy in human T47D cells assessed as increase in LC3 protein expression at 5 to 10 uM incubated for 24 hrs by western blot analysis; format: functional, cell-based; conditions: dose 5-10 µM
[16] = test system: T47D; assay: Induction of autophagy in human T47D cells assessed as decrease in p62 protein expression at 5 to 10 uM incubated for 24 hrs by western blot analysis; format: functional, cell-based; conditions: dose 5-10 µM
[17] = test system: T47D; assay: Anticancer activity against ER-alpha positive human T47D cells assessed as reduction in cell viability at 10 uM measured after 48 hrs in presence of autophagy inhibitor, 3-MA by CCK8 assay; format: functional, cell-based
[18] = test system: T47D; assay: Induction of cell cycle arrest in human T47D cells assessed as proportion of cells at G1 phase at 10 uM incubated for 24 hrs by flow cytometry (reference value: 52.6%); format: functional
[19] = test system: T47D; assay: Induction of cell cycle arrest in human T47D cells assessed as proportion of cells at G1 phase at 10 uM incubated for 24 hrs in presence of autophagy inhibitor, 3-MA by flow cytometry (reference value: 58.3%); format: functional
[20] = test system: T47D; assay: Induction of cell cycle arrest in human T47D cells assessed as proportion of cells at S phase at 10 uM incubated for 24 hrs in presence of autophagy inhibitor, 3-MA by flow cytometry (reference value: 21.4%); format: functional
[21] = test system: T47D; assay: Induction of cell cycle arrest in human T47D cells assessed as proportion of cells at G2 phase at 10 uM incubated for 24 hrs in presence of autophagy inhibitor, 3-MA by flow cytometry (reference value: 18.2%); format: functional
[22] = test system: T47D; assay: Induction of autophagy in human T47D cells assessed as upregulation of MAP1LC3B expression at 10 uM incubated for 12 hrs by RNA-seq analysis; format: functional, cell-based
[23] = Downregulation of MYC expression in human T47D cells at 10 uM incubated for 12 hrs by RNA-seq analysis; format: functional
[24] = target: T1, Estrogen receptor (Homo sapiens) (UniProt P03372); assay: Induction of ER-alpha degradation in human T47D cells overexpressing ER-alpha assessed as decrease in MYC protein expression at 10 uM incubated for 24 hrs by western blot analysis; format: cell-based
T1 sequence (whole entry): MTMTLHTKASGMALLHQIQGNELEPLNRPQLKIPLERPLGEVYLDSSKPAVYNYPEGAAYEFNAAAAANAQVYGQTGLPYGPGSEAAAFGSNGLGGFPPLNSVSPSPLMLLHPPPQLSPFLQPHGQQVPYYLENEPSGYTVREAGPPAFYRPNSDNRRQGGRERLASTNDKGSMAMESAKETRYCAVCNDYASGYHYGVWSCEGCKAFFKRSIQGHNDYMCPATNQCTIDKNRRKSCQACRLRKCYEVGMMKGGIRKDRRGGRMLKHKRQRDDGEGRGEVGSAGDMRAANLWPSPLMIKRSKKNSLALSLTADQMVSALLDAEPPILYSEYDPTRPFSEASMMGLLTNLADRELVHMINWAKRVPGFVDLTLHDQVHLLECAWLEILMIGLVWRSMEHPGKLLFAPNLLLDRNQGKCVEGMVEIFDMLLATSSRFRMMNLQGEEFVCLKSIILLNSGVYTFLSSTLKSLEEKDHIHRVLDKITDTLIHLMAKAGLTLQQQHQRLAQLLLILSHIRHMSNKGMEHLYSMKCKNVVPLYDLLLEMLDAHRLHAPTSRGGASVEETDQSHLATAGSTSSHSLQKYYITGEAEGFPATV

[25] = test system: T47D; assay: Induction of cell cycle arrest in human T47D cells transfected with empty vector assessed as proportion of cells at S phase at 10 uM incubated for 24 hrs by flow cytometry (reference value: 25.9%); format: functional
[26] = Induction of cell cycle arrest in tamoxifen-resistant human LCC2 cells assessed as proportion of cells at G2 phase at 5 uM by flow cytometry (reference value: 23.7%); format: functional
[27] = Induction of cell cycle arrest in tamoxifen-resistant human LCC2 cells assessed as proportion of cells at G1 phase at 10 uM by flow cytometry (reference value: 47.4%); format: functional
[28] = Induction of cell cycle arrest in tamoxifen-resistant human LCC2 cells assessed as proportion of cells at G2 phase at 10 uM by flow cytometry (reference value: 23.7%); format: functional
[29] = test system: T47D; assay: Induction of autophagy in human T47D cells overexpressing ESR1 assessed as increase in autophagosome number by measuring LC3 puncta formation by immunofluorescence assay; format: functional, cell-based

In the case of `COc1ccc(N(CC(F)(F)F)S(=O)(=O)C2CC3OC2C(c2ccc(OCCN4CCCC4)cc2)=C3c2ccc(O)cc2)cc1` (centres undefined), the inhibition [1] is reported as “Active”, the inhibition [2] is reported as “Active” and the Activity [3] is reported as 23.3%. For the same molecule, the Activity [4] was 63.7%, the Activity [5] was 15.7% and the Activity [6] was 18.5%. For the same molecule, the Activity [7] was 65.1%, the Activity [8] was 16.5% and the Activity [9] was 93.26%. For the same molecule, the Activity [10] was 83.71%, the Activity [11] was 46.45% and the Activity [12] was “Active”. For the same molecule, the Activity [13] was “Active”, the Activity [14] was “Non-Toxic” and the Activity [15] was “Active”. For the same molecule, the Activity [16] was “Active”, the Activity [17] was “inactive” and the Activity [18] was 71.6%. It also gave an Activity [19] of 63.3%, an Activity [20] of 14.5% and an Activity [21] of 19.3%. For the same molecule, the Activity [22] was “Active”, the “fold change (FC)” value [23] was -1.037 and the Activity [24] was “inactive”. The Activity [25] was 22.8%, the Activity [26] was 14.5% and the Activity [27] was 71.6%. For the same molecule, the Activity [28] was 13% and the Activity [29] was “Active”.
